The subject of experiment [1] is influenza A virus (A/PR/8/34). The experiment in a line: microbe, parasite or virus in culture. It counts as cell-based.
Experiment [2] deals with A/PR/8/34 influenza virus. The experiment in a line: microbe, parasite or virus in culture. The format is cell-based.
For experiment [3], the system named is influenza. The experiment in a line: In vivo prophylaxis study (FIG. 1), survival of infected mice. More on the design: species or system Balb/c mice. The following applies: 100 mg/kg oral gavage, first dose 2 hours prior to infection, twice daily for 5 days, survival monitored 21 days, P<0.0001 vs vehicle.
Experiment [4] has as its system influenza. In words: Influenza Therapeutic Mouse Model (Table 6). It counts as in vivo, mice. The following applies: dosing @ 48 hours post infection with 30 mg/kg BID X 10 days.
Experiment [5] relates to influenza. In words: In vivo treatment study (FIG. 2), survival of infected mice. More on the design: species or system Balb/c mice. The conditions noted are these: 200 mg/kg oral gavage from 24 hours post infection, twice daily for 10 days, survival monitored 21 days, P<0.0001 vs vehicle.
The mark [6] stands for this setting: Influenza A virus, PR/8, MDCK, MDCK cells infected with A/PR/8/34, survival of infected cells, class symbols, read-out: IC50 (mean all).
[7] abbreviates: Influenza A virus, PR/8, MDCK, MDCK cells infected with A/PR/8/34, replication of influenza virus (viral RNA, bDNA), class symbols, read-out: EC50 (mean all).
The mark [8] stands for this setting: Influenza A virus, PR/8, MDCK, mean all, survival of A/PR/8/34 infected MDCK cells (CPE assay), read-out: IC50.
[9] abbreviates: Influenza A virus, PR/8, mean all, replication of A/PR/8/34 influenza virus (bDNA assay), read-out: EC50.
Where [10] appears, read: mean all, A/PR/8/34 influenza virus in MDCK cells, bDNA assay, read-out: EC50.

Results on nine compounds are retold here after patent US8829007B2 (priority 2009, dated 2014).

Read-outs that look alike come from different tables or passages of the source.

Take `COC(=O)N[C@H]1CCC[C@@H](Nc2nc(-c3c[nH]c4ncc(Cl)cc34)ncc2F)C1` (relative stereo) [Compound 514, Methyl-cis-3-[[2-(5-chloro-1H-pyrrolo[2,3-b]pyridin-3-yl)-5-fluoro-pyrimidin-4-yl]amino]cyclohexylcarbamate]: the IC50 in experiment [1] (setting [6]) is below 5 µM. In addition, the EC50 in experiment [2] (setting [7]) is below 5 µM. Besides, in the experiment with influenza [3], the survival result is “complete survival”.
With `C[C@H]1NC(=O)O[C@]12CCC[C@H](Nc1nc(-c3c[nH]c4ncc(F)cc34)ncc1F)C2` (single isomer, unassigned) [Compound 967], the IC50 in experiment [1] (setting [8]) was below 5 µM. Moreover, the EC50 in experiment [2] (setting [9]) is below 5 µM. In addition, in the experiment with influenza [4], the “Percent Survival” value is recorded as 75% and the “Percent Weight Loss (Day 8)” value was found to be 30.9%.
With `OC[C@H](O)CN1CCCC(Nc2nc(-c3c[nH]c4ncc(Cl)cc34)ncc2F)C1` (stereo partly shown) [Compound 588], the IC50 in experiment [1] (setting [6]) is below 5 µM. For the same compound, the EC50 in experiment [2] (setting [7]) is below 5 µM. Also, in the experiment with influenza [5], the survival result is listed as “complete survival”.
Turning to `O=C(N[C@@H]1CCC[C@H](Nc2nc(-c3c[nH]c4ncc(F)cc34)ncc2F)C1)N1CCOCC1` [Compound 706, N-[(1R,3S)-3-[[5-fluoro-2-(5-fluoro-1H-pyrrolo[2,3-b]pyridin-3-yl)pyrimidin-4-yl]amino]cyclohexyl]morpholine-4-carboxamide], the half-inhibitory concentration (IC50) in experiment [1] (Influenza A virus, PR/8, MDCK, mean all, MDCK cells infected with A/PR/8/34, cell protection (CPE), read-out: IC50) is below 5 µM. Further, in experiment [2] (Influenza A virus, PR/8, MDCK, mean all, bDNA viral RNA in MDCK cells infected with A/PR/8/34, read-out: EC50), the EC50 is below 5 µM. Moreover, in the experiment on influenza [4], the “Percent Survival” value stood at 75% and the “Percent Weight Loss (Day 8)” value was 27.0%.
Regarding `O=C(N[C@@H]1CCC[C@H](Nc2nc(-c3c[nH]c4ncc(F)cc34)ncc2F)C1)N1CCCC1` [Compound 895, N-((1R,3S)-3-(5-fluoro-2-(5-fluoro-1H-pyrrolo[2,3-b]pyridin-3-yl)-pyrimidin-4-ylamino)cyclohexyl)pyrrolidine-1-carboxamide], the IC50 in experiment [1] (Influenza A virus, PR/8, MDCK, exemplary values in text, survival of A/PR/8/34 infected cells, read-out: IC50) was 0.0008 µM; in experiment [1] (setting [8]), below 5 µM. For the same compound, the EC50 in experiment [2] (Influenza A virus, PR/8, exemplary values in text, replication of A/PR/8/34 influenza virus, read-out: EC50) is 0.001 µM; in experiment [2] (setting [9]), below 5 µM. The “Percent Survival” value in the experiment with influenza [4] came out at 100%. Further, in the experiment on influenza [4], the “Percent Weight Loss (Day 8)” value came out at 12.8%.
Regarding “(R)—N-((1-(3-bromophenylsulfonyl)piperidin-3-yl)methyl)-2-(5-chloro-1H-pyrrolo[2,3-b]pyridin-3-yl)-5-fluoropyrimidin-4-amine [Compound 88]”, the IC50 in experiment [1] (read-out: IC50 (mean all)) was below 5 µM. The EC50 in experiment [2] (read-out: EC50 (mean all)) was below 5 µM.
With “(R)—N-cyclopropyl-2-((5-fluoro-2-(1H-pyrrolo[2,3-b]pyridin-3-yl)pyrimidin-4-ylamino)-methyl)piperidine-1-carboxamide [Compound 372]”, in experiment [1] (read-out: IC50), the IC50 was in the range of 5 to 20 µM. Also, the EC50 in experiment [2] (setting [10]) lay in the range of 5 to 10 µM.
For the compound “(R)—N-tert-butyl-3-((2-(5-chloro-1H-pyrrolo[2,3-b]pyridin-3-yl)-5-fluoropyrimidin-4-ylamino)methyl)piperidine-1-carboxamide [Compound 117]”, the IC50 in experiment [1] (read-out: IC50 (mean all)) was below 5 µM. Moreover, the EC50 in experiment [2] (read-out: EC50 (mean all)) is below 5 µM.
“N-[cis-2-[[5-fluoro-2-(1H-pyrrolo[2,3-b]pyridin-3-yl)pyrimidin-4-yl]amino]cyclohexyl]methanesulfonamide [Compound 337]”: in experiment [1] (read-out: IC50), the IC50 lay in the range of 5 to 20 µM. In addition, the 50% effective concentration (EC50) in experiment [2] (setting [10]) was below 5 µM.

Broadly, the IC50 is the concentration needed to halve the response being measured. As usually defined, the EC50 is the concentration needed to bring the measured effect to its halfway point.
